Values quoted from earlier work in US8367605B2, “Copolymer-1 improvements in compositions of copolymers” (Yeda Research and Development Co. Ltd., priority 1994, dated 2013).

Columns and labels:
[1] = system: experimental autoimmune encephalomyelitis (EAE); conditions: Eur. J. Immunol. [1971]1:242; U.S. Pat. No. 3,849,550
[2] = system: patients with the exacerbating-remitting form of multiple sclerosis; conditions: daily injections; N. Engl. J. Med. [1987]317:408

In the case of copolymer-1, the “effect on EAE” value [1] is listed as “suppress EAE”, the “disability status versus control patients” value [2] is listed as “smaller increases in their disability status” and the “exacerbations versus control patients” value [2] is listed as “fewer exacerbations”.
